Assay results published in publication PMC5520492, “Inhibition of DNA2 nuclease as a therapeutic strategy targeting replication stress in cancer cells” (Oncogenesis, 2017).

Biological target: T1, hDNA2 (Homo sapiens, UniProt P51530)
T1 construct: made in house
T1 sequence (P51530 1-1060): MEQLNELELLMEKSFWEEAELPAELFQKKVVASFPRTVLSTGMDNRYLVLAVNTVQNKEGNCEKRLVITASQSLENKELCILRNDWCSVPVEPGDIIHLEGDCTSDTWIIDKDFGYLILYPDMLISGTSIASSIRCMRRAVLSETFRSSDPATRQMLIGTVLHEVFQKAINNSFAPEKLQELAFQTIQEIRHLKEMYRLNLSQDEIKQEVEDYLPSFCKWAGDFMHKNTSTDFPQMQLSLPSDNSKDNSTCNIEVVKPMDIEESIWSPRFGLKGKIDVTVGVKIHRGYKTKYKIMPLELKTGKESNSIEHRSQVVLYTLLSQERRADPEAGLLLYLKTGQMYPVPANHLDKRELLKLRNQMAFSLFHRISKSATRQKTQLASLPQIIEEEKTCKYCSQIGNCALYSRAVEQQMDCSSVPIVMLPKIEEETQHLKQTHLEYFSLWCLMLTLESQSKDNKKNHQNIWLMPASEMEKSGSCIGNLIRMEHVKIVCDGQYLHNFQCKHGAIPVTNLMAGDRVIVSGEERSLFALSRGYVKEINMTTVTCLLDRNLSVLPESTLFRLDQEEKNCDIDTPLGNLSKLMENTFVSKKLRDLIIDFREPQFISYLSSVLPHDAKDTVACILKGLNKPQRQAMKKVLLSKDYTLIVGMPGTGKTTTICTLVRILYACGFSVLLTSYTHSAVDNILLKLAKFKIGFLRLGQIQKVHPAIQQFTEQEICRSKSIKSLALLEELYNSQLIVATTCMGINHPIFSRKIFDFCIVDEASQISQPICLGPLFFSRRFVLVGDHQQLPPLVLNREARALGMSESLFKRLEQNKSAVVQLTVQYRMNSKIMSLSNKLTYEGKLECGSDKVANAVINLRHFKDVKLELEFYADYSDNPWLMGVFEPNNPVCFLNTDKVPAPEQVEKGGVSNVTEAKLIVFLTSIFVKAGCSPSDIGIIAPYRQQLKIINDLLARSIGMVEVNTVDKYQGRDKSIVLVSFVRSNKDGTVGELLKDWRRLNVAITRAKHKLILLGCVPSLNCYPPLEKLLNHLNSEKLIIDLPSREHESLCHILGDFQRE
Assay: Fluorescence nuclease assay with hDNA2 (triply labeled ssDNA)
Type: biochemical
Conditions: human DNA2 10 nM; substrate 0.1 μM; Figure 3c; read-out: IC50 (human DNA2), dose-response in vitro
Experimental: Figure 3 Validation of the top two inhibitors identified from the high-throughput screen. […] (b, c) Dose-response curves for indicated compounds, cell based (U2OS cell line) (b) and in vitro (c). The IC50 value and the protein concentration used are indicated. Triple labeled substrate (0.1 μM) as in Figure 2a was used. The concentration range of inhibitors was 0.003–666.67 μM. […] The asterisks denote the radiolabel. Plotted are the average data from three independent experiments and the error bars represent 1 s.d. […]
In addition, a second dark quencher ZEN (N,N-diethyl-4-(4-nitronaphthalen-1-ylazo)-phenylamine, absorption max.=532 nm) is placed between 9th and 10th base (Figure 2a). […] The optimal amount of yDna2, hDNA2 and T5 nuclease was determined by utilizing the Kaleidagraph software (Reading, PA, USA) to fit the data according to Michaelis Menton Kinetics (V=V0+Vmax*x/(Km+x)). […] The Z’ value was calculated as previously described.[50] Cell proliferation was determined using 4,6-diamidino-2-phenylindole staining followed by high-throughput microscopy in a 384-well plate setup. In brief, cells were fixed with formaldehyde, washed and stained with 4,6-diamidino-2-phenylindole and the number of nuclei in each well counted by automated microscopy. The data were analyzed as described.[51]

Row | SMILES | IC50 [µM]
1 | NC1=C(Br)C(=O)c2ncccc2C1=O [NSC-105808, 6-amino-7-bromoquinoline-5,8-dione] | 1.49
2 | O=C1C(=O)c2cc([N+](=O)[O-])ccc2-c2ccccc21 [NSC-5195242, 2-nitrophenanthrene-9,10-dione] | 3.1
